Structures are written as SMILES. pIC50: −log10 of the molar value.

In this test the test system is H1N1 (influenza A/New Caledonia/20/99). The test is described as follows: microbe, parasite or virus in culture. Format: cell-based. The note with it: Influenza A virus, H1N1, A549, 48 h.
The molecule `Cc1ccc(NC(=O)c2c(NC(=O)C3CCCCC3C(=O)O)sc3c2CCC3)cc1Cl` (centres unmarked) [Compound 14, 2-[[3-[(3-chloro-4-methyl-phenyl)carbamoyl]-5,6-dihydro-4H-cyclopenta[b]thiophen-2-yl]carbamoyl]cyclohexanecarboxylic acid] had a pIC50 of 5.32.

Take `Cc1cc(Cl)ccc1NC(=O)c1c(NC(=O)C2CCCCC2C(=O)O)sc2c1CCC2` (centres unmarked) [Compound 7, 2-[[3-[(4-Chloro-2-methyl-phenyl)carbamoyl]-5,6-dihydro-4H-cyclopenta[b]thiophen-2-yl]carbamoyl]cyclohexanecarboxylic acid]: the pIC50 was 5.00.

As to `NS(=O)(=O)N1CCCC(C(=O)Nc2sc3c(c2C(=O)Nc2ccc(Cl)cc2)CCC3)C1` (centres unmarked) [Compound 83, N-[3-[(4-chlorophenyl)carbamoyl]-5,6-dihydro-4H-cyclopenta[b]thiophen-2-yl]-1-sulfamoyl-piperidine-3-carboxamide], the pIC50 was 5.30.

The molecule `Cc1cc(NC(=O)c2c(NC(=O)C3CCCCC3C(=O)O)sc3c2CCC3)ccc1Cl` (centres unmarked) [Compound 13, 2-[[3-[(4-Chloro-3-methyl-phenyl)carbamoyl]-5,6-dihydro-4H-cyclopenta[b]thiophen-2-yl]carbamoyl]cyclohexanecarboxylic acid] had a pIC50 of 5.33.

`CC(C)(C)C1CCc2c(sc(NC(=O)[C@H]3CCCC[C@H]3C(=O)O)c2C(=O)Nc2ccc(Cl)cc2)C1` (stereo in doubt) [Compound 79, 2-[[6-tert-butyl-3-[(4-chlorophenyl)carbamoyl]-4,5,6,7-tetrahydrobenzothiophen-2-yl]carbamoyl]cyclohexanecarboxylic acid] had a pIC50 of 5.73.

With `O=C(Nc1ccc(Cl)cc1)c1c(NC(=O)N2CCCCC2C(=O)O)sc2c1CCC2` (centres unmarked) [Compound 89, 1-[[3-[(4-chlorophenyl)carbamoyl]-5,6-dihydro-4H-cyclopenta[b]thiophen-2-yl]carbamoyl]piperidine-2-carboxylic acid], the pIC50 is 5.06.

For the molecule `O=C(Nc1ccc(CO)cc1)c1c(NC(=O)C2CCCCC2C(=O)O)sc2c1CCC2` (centres unmarked) [Compound 19, 2-[[3-[[4-(Hydroxymethyl)phenyl]carbamoyl]-5,6-dihydro-4H-cyclopenta[b]thiophen-2-yl]carbamoyl]cyclohexanecarboxylic acid], the pIC50 is 4.51.

Molecule `NS(=O)(=O)N1CCOC(C(=O)Nc2sc3c(c2C(=O)Nc2ccc(Cl)cc2)CCC3)C1` (centres unmarked) [Compound 87, N-[3-[(4-chlorophenyl)carbamoyl]-5,6-dihydro-4H-cyclopenta[b]thiophen-2-yl]-4-sulfamoyl-morpholine-2-carboxamide] showed a pIC50 of 5.17.

In turn, `O=C(Nc1ccc(Cl)cc1)c1c(NC(=O)C2CC=CCC2C(=O)O)sc2c1CCC2` (centres unmarked) [Compound 48, 6-[[3-[(4-Chlorophenyl)carbamoyl]-5,6-dihydro-4H-cyclopenta[b]thiophen-2-yl]carbamoyl]cyclohex-3-ene-1-carboxylic acid] gave a pIC50 of 4.95.

Molecule `Cc1cccc(NC(=O)c2c(NC(=O)C3CC=CCC3C(=O)O)sc3c2CCCC3)c1` (centres unmarked) [Compound 68, 6-[[3-(m-Tolylcarbamoyl)-4,5,6,7-tetrahydrobenzothiophen-2-yl]carbamoyl]cyclohex-3-ene-1-carboxylic acid] showed a pIC50 of 4.93.

For the molecule `O=C(Nc1ccc(Cl)cc1)c1c(NC(=O)C2CCCCC2)sc2c1CCC2` [Compound 52, N-(4-Chlorophenyl)-2-(cyclohexanecarbonylamino)-5,6-dihydro-4H-cyclopenta[b]thiophene-3-carboxamide], the pIC50 is 4.53.

`O=C(Nc1ccc(Cl)cc1)c1c(NC(=O)C2C3CCC(O3)C2C(=O)O)sc2c1CCC2` (centres unmarked) [Compound 51, 2-[[3-[(4-Chlorophenyl)carbamoyl]-5,6-dihydro-4H-cyclopenta[b]thiophen-2-yl]carbamoyl]-7-oxabicyclo[2.2.1]heptane-3-carboxylic acid] showed a pIC50 of 4.53.

Turning to `CS(=O)(=O)N1CCCCC1C(=O)Nc1sc2c(c1C(=O)Nc1ccc(Cl)cc1)CCC2` (centres unmarked) [Compound 100, N-[3-[(4-chlorophenyl)carbamoyl]-5,6-dihydro-4H-cyclopenta[b]thiophen-2-yl]-1-methylsulfonyl-piperidine-2-carboxamide], the negative-log IC50 (pIC50) was 4.78.

As to `O=C(O)C=CC(=O)Nc1sc2c(c1C(=O)Nc1ccc(Cl)cc1)CCC2` [Compound 43, 4-[[3-[(4-Chlorophenyl)carbamoyl]-5,6-dihydro-4H-cyclopenta[b]thiophen-2-yl]amino]-4-oxo-but-2-enoic acid], the pIC50 is 4.48.

On to `CS(=O)(=O)N1CCOC(C(=O)Nc2sc3c(c2C(=O)Nc2ccc(Cl)cc2)CCC3)C1` (centres unmarked) [Compound 86, N-[3-[(4-chlorophenyl)carbamoyl]-5,6-dihydro-4H-cyclopenta[b]thiophen-2-yl]-4-methylsulfonyl-morpholine-2-carboxamide], for which the pIC50 was 5.20.

On to `CCc1c(C)sc(NC(=O)C2CCCCC2C(=O)O)c1C(=O)Nc1cccc(Cl)c1` (centres unmarked) [Compound 70, 2-[[3-[(3-Chlorophenyl)carbamoyl]-4-ethyl-5-methyl-2-thienyl]carbamoyl]cyclohexanecarboxylic acid], for which the pIC50 is 4.83.

Consider `O=C(Nc1ccc(Cl)cc1)c1c(NC(=O)C2CCCCC2C(=O)O)sc2c1CSC2` (centres unmarked) [Compound 38, 2-[[3-[(4-Chlorophenyl)carbamoyl]-4,6-dihydrothieno[3,4-b]thiophen-2-yl]carbamoyl]cyclohexanecarboxylic acid], for which the pIC50 is 5.19.

As for `O=C(O)CC1(CC(=O)Nc2sc3c(c2C(=O)Nc2ccc(Cl)cc2)CCC3)CCCC1` [Compound 45, 2-[1-[2-[[3-[(4-Chlorophenyl)carbamoyl]-5,6-dihydro-4H-cyclopenta[b]thiophen-2-yl]amino]-2-oxo-ethyl]cyclopentyl]acetic acid], the pIC50 is 5.09.

Consider `Cc1cncc(NC(=O)c2c(NC(=O)C3CCCCC3C(=O)O)sc3c2CCC3)c1` (centres unmarked) [Compound 33, 2-[[3-[(5-Methyl-3-pyridyl)carbamoyl]-5,6-dihydro-4H-cyclopenta[b]thiophen-2-yl]carbamoyl]cyclohexanecarboxylic acid], for which the pIC50 is 4.56.

Regarding `CC(C)(CC(=O)O)CC(=O)Nc1sc2c(c1C(=O)Nc1ccc(Cl)cc1)CCC2` [Compound 47, 5-[[3-[(4-Chlorophenyl)carbamoyl]-5,6-dihydro-4H-cyclopenta[b]thiophen-2-yl]amino]-3,3-dimethyl-5-oxo-pentanoic acid], the pIC50 is 4.64.

As to `O=C(Nc1ccc(-c2ccccc2)cc1)c1c(NC(=O)C2CCCCC2C(=O)O)sc2c1CCC2` (centres unmarked) [Compound 10, 2-[[3-[(4-Phenylphenyl)carbamoyl]-5,6-dihydro-4H-cyclopenta[b]thiophen-2-yl]carbamoyl]cyclohexanecarboxylic acid], the pIC50 was 5.62.

`CC(C)c1ccc(NC(=O)c2c(NC(=O)C3CCCCC3C(=O)O)sc3c2CCC3)cc1` (centres unmarked) [Compound 25, 2-[[3-[(4-Isopropylphenyl)carbamoyl]-5,6-dihydro-4H-cyclopenta[b]thiophen-2-yl]carbamoyl]cyclohexanecarboxylic acid] gave a pIC50 of 5.33.

Turning to `O=C(NC1CCc2ccccc21)c1c(NC(=O)C2CCCCC2C(=O)O)sc2c1CCC2` (centres unmarked) [Compound 23, 2-[[3-(Indan-1-ylcarbamoyl)-5,6-dihydro-4H-cyclopenta[b]thiophen-2-yl]carbamoyl]cyclohexanecarboxylic acid], the pIC50 was 5.20.

The molecule `O=C(NCc1ccc(Cl)cc1)c1c(NC(=O)C2CCCCC2C(=O)O)sc2c1CCC2` (centres unmarked) [Compound 5, 2-[[3-[(4-Chlorophenyl)methylcarbamoyl]-5,6-dihydro-4H-cyclopenta[b]thiophen-2-yl]carbamoyl]cyclohexanecarboxylic acid] showed a pIC50 of 4.97.

`O=C(Nc1cccc(C(F)(F)F)c1)c1c(NC(=O)C2CCCCC2C(=O)O)sc2c1CCC2` (centres unmarked) [Compound 77, 2-[[3-[[3-(Trifluoromethyl)phenyl]carbamoyl]-5,6-dihydro-4H-cyclopenta[b]thiophen-2-yl]carbamoyl]cyclohexanecarboxylic acid] gave a pIC50 of 5.17.

Consider `NS(=O)(=O)N1CCC1C(=O)Nc1sc2c(c1C(=O)Nc1ccc(Cl)cc1)CCC2` (centres unmarked) [Compound 102, N-[3-[(4-chlorophenyl)carbamoyl]-5,6-dihydro-4H-cyclopenta[b]thiophen-2-yl]-1-sulfamoyl-azetidine-2-carboxamide], for which the pIC50 is 4.68.

Take `O=C(O)CCC(=O)Nc1sc2c(c1C(=O)Nc1ccc(Cl)cc1)CCC2` [Compound 50, 4-[[3-[(4-Chlorophenyl)carbamoyl]-5,6-dihydro-4H-cyclopenta[b]thiophen-2-yl]amino]-4-oxo-butanoic acid]: the pIC50 is 4.48.

Molecule `O=C(NCc1cccc(Cl)c1)c1c(NC(=O)C2CCCCC2C(=O)O)sc2c1CCC2` (centres unmarked) [Compound 11, 2-[[3-[(3-Chlorophenyl)methylcarbamoyl]-5,6-dihydro-4H-cyclopenta[b]thiophen-2-yl]carbamoyl]cyclohexanecarboxylic acid] gave a pIC50 of 5.06.

The molecule `O=C(NC1CCCCC1)c1c(NC(=O)C2CCCCC2C(=O)O)sc2c1CCC2` (centres unmarked) [Compound 65, 2-[[3-(Cyclohexylcarbamoyl)-5,6-dihydro-4H-cyclopenta[b]thiophen-2-yl]carbamoyl]cyclohexanecarboxylic acid] gave a pIC50 of 4.75.

Consider `CCc1c(C)sc(NC(=O)C2CCCCC2C(=O)O)c1C(=O)Nc1ccccc1` (centres unmarked) [Compound 73, 2-[[4-Ethyl-5-methyl-3-(phenylcarbamoyl)-2-thienyl]carbamoyl]cyclohexanecarboxylic acid], for which the pIC50 is 4.61.

On to `Cc1ccc(NC(=O)c2c(NC(=O)C3CCCCC3C(=O)O)sc3c2CCC3)cc1C` (centres unmarked) [Compound 1, 2-[[3-[(3,4-Dimethylphenyl)carbamoyl]-5,6-dihydro-4H-cyclopenta[b]thiophen-2-yl]carbamoyl]cyclohexanecarboxylic acid], for which the pIC50 is 5.11.

Molecule `O=C(Nc1ccc(C(F)(F)F)cc1)c1c(NC(=O)C2CCCCC2C(=O)O)sc2c1CCC2` (centres unmarked) [Compound 27, 2-[[3-[[4-(Trifluoromethyl)phenyl]carbamoyl]-5,6-dihydro-4H-cyclopenta[b]thiophen-2-yl]carbamoyl]cyclohexanecarboxylic acid] had a pIC50 of 4.74.

By pIC50 is commonly meant the negative decadic logarithm of the IC50, by convention in mol/L. Low values mean a high IC50, high ones a low IC50.

These data come from patent US11279683B2, “Thiophene derivatives as antiviral agents” (ENYO PHARMA, priority 2016, dated 2022).
